Experimental data taken from patent publication US11077090B2, “Compounds and compositions and uses thereof” (Sunovion Pharmaceuticals Inc., priority 2016, dated 2021).
Where a name gives a salt, the structure may show the parent alone. Read-outs that look alike come from different tables or passages of the source.

System: compound-treated mice
Assay: Neuropharmacological assay (SmartCube): behavioral activity signature and minimal effective dose
Assay type: in vivo
Settings: for minimal effective dose: Mus musculus, ip, MED = dose having 50% or more total activity; for AD: ADHD (probability of activity signature) / AG: analgesic (probability of activity signature) / AX: anxiolytic (probability of activity signature) / CE: cognitive enhancer (probability of activity signature) / DP: anti-depressant (probability of activity signature) / MS: mood stabilizer (probability of activity signature) / PS: anti-psychotic (probability of activity signature) / SD: sedative hypnotic (probability of activity signature) / UN: uncharacterized CNS activity (probability of activity signature): i.p. 15 min before test, most efficacious dose(s)
How it was run: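 Video-recorded behavior is compared algorithmically against a reference-compound database, yielding class probabilities (best dose reported). Compounds given i.p. in NMP/PEG/propylene glycol 15 min pre-test at 3 doses; potency as MED, the dose (mpk, range usually 0.3–30) reaching ≥50% total activity.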

[1] = read-out: Potency: minimal effective dose (MED), binned
[2] = read-out: Potency: minimal effective dose (MED)

Compound	minimal effective dose [1] [mg/kg]	AD: ADHD (probability of activity signature)	AG: analgesic (probability of activity signature)	AX: anxiolytic (probability of activity signature)	CE: cognitive enhancer (probability of activity signature)	DP: anti-depressant (probability of activity signature)	MS: mood stabilizer (probability of activity signature)	PS: anti-psychotic (probability of activity signature)	SD: sedative hypnotic (probability of activity signature)	UN: uncharacterized CNS activity (probability of activity signature)	minimal effective dose [2] [mg/kg]
CC(C)C[C@@H]1OCc2ccccc2[C@@H]1N [Example 223]	3 to 10	+ (LOQ ≤ + <5%)	+ (LOQ ≤ + <5%)	++ (5% ≤ ++ <25%)	+ (LOQ ≤ + <5%)	++ (5% ≤ ++ <25%)	+ (LOQ ≤ + <5%)	+ (LOQ ≤ + <5%)	++ (5% ≤ ++ <25%)	+++ (25% ≤ +++ <50%)	
CN[C@@H]1CO[C@H](C)c2ccccc21 (relative stereo) [Example 240, cis-N,1-dimethylisochroman-4-amine hydrochloride]	3 to 10	+ (LOQ ≤ + <5%)	++ (5% ≤ ++ <25%)	++ (5% ≤ ++ <25%)	++ (5% ≤ ++ <25%)	++ (5% ≤ ++ <25%)	+ (LOQ ≤ + <5%)	++ (5% ≤ ++ <25%)	++ (5% ≤ ++ <25%)	+++ (25% ≤ +++ <50%)	
C#CCN[C@H]1c2ccccc2CO[C@@H]1C.Cl [Example 270]	< 3	++ (5% ≤ ++ <25%)	+ (LOQ ≤ + <5%)	++ (5% ≤ ++ <25%)	+ (LOQ ≤ + <5%)	++ (5% ≤ ++ <25%)	++++ (50% ≤ ++++)	+ (LOQ ≤ + <5%)	++ (5% ≤ ++ <25%)	++ (5% ≤ ++ <25%)	
C[C@@H]1OCc2cc(F)ccc2[C@@H]1N.Cl (single isomer, unassigned) [Example 212]	10 to 30	+ (LOQ ≤ + <5%)	++ (5% ≤ ++ <25%)	++ (5% ≤ ++ <25%)	+ (LOQ ≤ + <5%)	+ (LOQ ≤ + <5%)	+ (LOQ ≤ + <5%)	+ (LOQ ≤ + <5%)	+ (LOQ ≤ + <5%)	++++ (50% ≤ ++++)	
COc1ccc2c(c1)[C@@H](N)COC2 (single isomer, unassigned) [Example 122]		+ (LOQ ≤ + <5%)	++ (5% ≤ ++ <25%)	+++ (25% ≤ +++ <50%)	+++ (25% ≤ +++ <50%)	++ (5% ≤ ++ <25%)	+ (LOQ ≤ + <5%)	++ (5% ≤ ++ <25%)	++ (5% ≤ ++ <25%)	+++ (25% ≤ +++ <50%)	< 3
COc1ccc2c(c1)[C@@H](N)[C@@H](C)OC2 (single isomer, unassigned) [Example 174]	3 to 10	+ (LOQ ≤ + <5%)	++ (5% ≤ ++ <25%)	++ (5% ≤ ++ <25%)	++ (5% ≤ ++ <25%)	++ (5% ≤ ++ <25%)	+ (LOQ ≤ + <5%)	++ (5% ≤ ++ <25%)	+ (LOQ ≤ + <5%)	++++ (50% ≤ ++++)	
CCN(C)C(=O)Oc1ccc2c(c1)CO[C@@H](C)[C@H]2N(C)C.Cl [Example 285]	3 to 10	++ (5% ≤ ++ <25%)	+ (LOQ ≤ + <5%)	++ (5% ≤ ++ <25%)	+ (LOQ ≤ + <5%)	++ (5% ≤ ++ <25%)	++++ (50% ≤ ++++)	++++ (50% ≤ ++++)	+ (LOQ ≤ + <5%)	++ (5% ≤ ++ <25%)	
CN(C)C1COCc2ccccc21.Cl (stereo not drawn) [Example 60, N,N-dimethylisochroman-4-amine hydrochloride]		+ (LOQ ≤ + <5%)	++ (5% ≤ ++ <25%)	+++ (25% ≤ +++ <50%)	++ (5% ≤ ++ <25%)	++ (5% ≤ ++ <25%)	+ (LOQ ≤ + <5%)	++ (5% ≤ ++ <25%)	+ (LOQ ≤ + <5%)	+ (LOQ ≤ + <5%)	10 to 30
CCN(C)C(=O)Oc1ccc2c(c1)CO[C@@H](C)[C@H]2N.Cl [Example 279]	3 to 10	+ (LOQ ≤ + <5%)	+ (LOQ ≤ + <5%)	+ (LOQ ≤ + <5%)	+ (LOQ ≤ + <5%)	++ (5% ≤ ++ <25%)	+++ (25% ≤ +++ <50%)	++ (5% ≤ ++ <25%)	++ (5% ≤ ++ <25%)	++ (5% ≤ ++ <25%)	
Cc1ccc2c(c1C)[C@H](N)[C@H](C)OC2.Cl [Example 78]		+ (LOQ ≤ + <5%)	++ (5% ≤ ++ <25%)	++ (5% ≤ ++ <25%)	++ (5% ≤ ++ <25%)	++ (5% ≤ ++ <25%)	+ (LOQ ≤ + <5%)	+++ (25% ≤ +++ <50%)	+ (LOQ ≤ + <5%)	++++ (50% ≤ ++++)	3 to 10
Cc1cccc2c1[C@@H](N)COC2 (single isomer, unassigned) [Example 134]		+ (LOQ ≤ + <5%)	++ (5% ≤ ++ <25%)	+++ (25% ≤ +++ <50%)	++ (5% ≤ ++ <25%)	++ (5% ≤ ++ <25%)	+ (LOQ ≤ + <5%)	++ (5% ≤ ++ <25%)	++ (5% ≤ ++ <25%)	+++ (25% ≤ +++ <50%)	3 to 10
COc1cccc2c1COCC2N.Cl (stereo not drawn) [Example 24]		+ (LOQ ≤ + <5%)	+ (LOQ ≤ + <5%)	++ (5% ≤ ++ <25%)	+ (LOQ ≤ + <5%)	++ (5% ≤ ++ <25%)	+ (LOQ ≤ + <5%)	++ (5% ≤ ++ <25%)	++ (5% ≤ ++ <25%)	+ (LOQ ≤ + <5%)	10 to 30
N[C@H]1COCc2cccc(Cl)c21 [Example 128]		+ (LOQ ≤ + <5%)	++ (5% ≤ ++ <25%)	++ (5% ≤ ++ <25%)	+++ (25% ≤ +++ <50%)	++ (5% ≤ ++ <25%)	+ (LOQ ≤ + <5%)	++ (5% ≤ ++ <25%)	+ (LOQ ≤ + <5%)	+++ (25% ≤ +++ <50%)	< 3
C[C@H]1OCc2ccc3ccccc3c2[C@@H]1N.Cl (single isomer, unassigned) [Example 90]		+ (LOQ ≤ + <5%)	++ (5% ≤ ++ <25%)	+++ (25% ≤ +++ <50%)	++ (5% ≤ ++ <25%)	++ (5% ≤ ++ <25%)	+ (LOQ ≤ + <5%)	+ (LOQ ≤ + <5%)	++ (5% ≤ ++ <25%)	+ (LOQ ≤ + <5%)	10 to 30
C[C@@H]1OCc2c(Cl)cccc2[C@@H]1N.Cl [Example 86]		+ (LOQ ≤ + <5%)	++ (5% ≤ ++ <25%)	++ (5% ≤ ++ <25%)	++ (5% ≤ ++ <25%)	+ (LOQ ≤ + <5%)	+ (LOQ ≤ + <5%)	++ (5% ≤ ++ <25%)	+ (LOQ ≤ + <5%)	+++ (25% ≤ +++ <50%)	10 to 30
